# Test results as given in patent publication US6251900A, “Heterocyclic compounds and antitumor agent containing the same as active ingredient” (Zenyaku Kogyo Kabushiki Kaisha, priority 1997, dated 2001).
# Counter-ions that a name gives are not always drawn.
# System: MCF-7 cells
# Test: Growth inhibition of MCF-7 human breast cancer cells, 72 h culture (Test 1)
# Format: cell-based
# Conditions: MCF7, 37° C., read-out: 50% Growth inhibition concentrations (GI50)
# Experimental: Used in the test were MCF-7 cells which were established from human breast cancer and were cultured routinely under the conditions of 37° C. and 5% CO2, in RPMI 1640 medium supplemented with 10% fetal calf serum, HEPES buffer solution (25 mM) and kanamycin (0.1 mg/ml). Single cell suspension was prepared by adding trypsin/EDTA to the medium so as to be adjusted to 4.0×10^4 cells/ml. Test compounds were dissolved or suspended in DMSO or RPMI 1640 medium at a concentration of 1.0×10^-4 -1.0×10^-9 M.
# The cell suspension and the sample solution or suspension were filled in a 96-wells microplate at a rate of 0.1 ml of the former and 0.1 ml of the latter per well and cultured at 37° C. for 72 hours in 5% CO2.
# 50% Growth inhibition concentrations (GI50 μM) were calculated from growth inhibitions at various sample concentrations.
row,GI50,Structure (SMILES)
1,3.3 µM,"c1ccc2c(c1)ncn2-c1nc(N2CCOCC2)nc(N2CCOCC2)n1 [compound 2, 2-(benzimidazol-1-yl)-4,6-dimorpholino-1,3,5-triazine]"
2,3.2 µM,"Cc1nc2ccccc2n1-c1nc(N2CCOCC2)nc(N2C[C@@H](C)O[C@@H](C)C2)n1 [compound 33, 4-(cis-2,6-dimethylmorpholino)-2-(2-methylbenzimidazol-1-yl)-6-morpholino-1,3,5-triazine]"
3,3.1 µM,"c1ccc2c(c1)ncn2-c1cc(N2CCOCC2)nc(-n2cnc3ccccc32)n1 [compound 44, 2,4-di(benzimidazol-1-yl)-6-morpholinopyrimidine]"
4,7.2 µM,"FC(F)(F)C1CN(c2nc(N3CCOCC3)nc(-n3cnc4ccccc43)n2)CCO1 (stereo not shown) [compound 6, 2-(benzimidazol-1-yl)-4-morpholino-6-(2-trifluoro-methylmorpholino)-1,3,5-triazine]"
5,4.3 µM,"c1ccc2c(c1)ncn2-c1cc(-n2cnc3ccccc32)nc(N2CCOCC2)n1 [compound 46, 4,6-di(benzimidazol-1-yl)-2-morpholinopyrimidine]"
6,3.9 µM,"c1ccc2c(c1)ncn2-c1nc(N2CCOCC2)cc(N2CCSCC2)n1 [compound 23, 2-(benzimidazol-1-yl)-4-morpholino-6-thiomorpholino-pyrimidine]"
7,4.6 µM,"OCCN(CCO)c1nc(N2CCOCC2)nc(-n2cnc3ccccc32)n1 [compound 42, 2-(benzimidazol-1-yl)-4-[N,N-di(2-hydroxyethyl)amino]-6-morpholino-1,3,5-triazine]"
8,5 µM,"c1ccc2c(c1)ncn2-c1nc(N2CCOCC2)nc(N2CCC3(CC2)OCCO3)n1 [compound 48, 2-(benzimidazol-1-yl)-4-[1,4-dioxa-8-azaspiro[4,5]decan-8-yl)-6-morpholino-1,3,5-triazine]"
9,> 50 µM,"CN(C)c1nc(N(C)C)nc(N(C)CO)n1 [compound C, hydroxymethylpentamethylmelamine, reference compound]"
10,3.8 µM,"N#Cc1nc(N2CCOCC2)nc(-n2cnc3ccccc32)n1 [compound 4, 2-(benzimidazol-1-yl)-4-cyano-6-morpholino-1,3,5-triazine]"
11,3.9 µM,"FCC1CN(c2nc(N3CCOCC3)nc(-n3cnc4ccccc43)n2)CCO1 (stereo not shown) [compound 32, 2-(benzimidazol-1-yl)-4-(2-fluoromethylmorpholino)-6-morpholino-1,3,5-triazine]"
12,2.3 µM,"C[C@H]1CN(c2nc(N3CCOCC3)nc(-n3cnc4ccccc43)n2)C[C@H](C)O1 (relative stereo) [compound 14, 2-(benzimidazol-1-yl)-4-(trans-2,6-dimethylmorpholino)-6-morpholino-1,3,5-triazine]"
13,1 µM,"C[C@@H]1OCCN(c2nc(N3CCOCC3)nc(-n3cnc4ccccc43)n2)[C@@H]1C (relative stereo) [compound 7, 2-(benzimidazol-1-yl)-4-(cis-2,3-dimethylmorpholino)-6-morpholino-1,3,5-triazine]"
14,6.8 µM,"CN(Cc1ccccc1)CC1CN(c2nc(N3CCOCC3)nc(-n3cnc4ccccc43)n2)CCO1 (stereo not shown) [compound 31, 2-(benzimidazol-1-yl)-4-[2-(N-benzyl-N-methylamino-methyl)morpholino]-6-morpholino-1,3,5-triazine]"
15,4.6 µM,"c1ccc2c(c1)ncn2-c1cc(N2CCOCC2)nc(N2CCOCC2)n1 [compound 45, 4-(benzimidazol-1-yl)-2,6-dimorpholinopyrimidine]"
16,3.7 µM,"Cc1nc2ccccc2n1-c1nc(N2CCOCC2)nc(N2CCOCC2)n1 [compound 3, 2-(2-methylbenzimidazol-1-yl)-4,6-dimorpholino-1,3,5-triazine]"
17,5.8 µM,"OCC1CN(c2nc(N3CCOCC3)nc(-n3cnc4ccccc43)n2)CCO1 (stereo not shown) [compound 34, 2-(benzimidazol-1-yl)-4-(2-hydroxymethylmorpholino)-6-morpholino-1,3,5-triazine]"
18,3.7 µM,"Cc1cc2ncn(-c3nc(N4CCOCC4)nc(N4CCOCC4)n3)c2cc1C [compound 30, 2-(5,6-dimethylbenzimidazol-1-yl)-4,6-dimorpholino-1,3,5-triazine]"
19,3.9 µM,"C[C@@H]1CN(c2nc(N3CCO[C@@H](C)[C@H]3C)nc(-n3cnc4ccccc43)n2)C[C@H](C)O1 (relative stereo) [compound 8, 2-(benzimidazol-1-yl)-4-(cis-2,3-dimethylmorpholino)-6-(cis-2,6-dimethylmorpholino)-1,3,5-triazine]"
20,5 µM,"CCN(CCN1CCOCC1)c1nc(N2CCOCC2)nc(-n2cnc3ccccc32)n1 [compound 49, 2-(benzimidazol-1-yl)-4-(N-ethyl-N-2-morpholinoethyl)amino-6-morpholino-1,3,5-triazine]"
21,3.9 µM,"OC1CCCN(c2nc(N3CCOCC3)nc(-n3cnc4ccccc43)n2)C1 (stereo not shown) [compound 36, 2-(benzimidazol-1-yl)-4-(3-hydroxypiperidino)-6-morpholino-1,3,5-triazine]"
22,2.8 µM,"C[C@H]1CN(c2cc(N3CCOCC3)nc(-n3cnc4ccccc43)n2)C[C@H](C)O1 (relative stereo) [compound 20, 2-(benzimidazol-1-yl)-4-(trans-2,6-dimethylmorpholino)-6-morpholinopyrimidine]"
23,5.2 µM,"NCCCCC1CCCN(c2nc(N3CCOCC3)nc(-n3cnc4ccccc43)n2)C1 (stereo not shown) [compound 53, hydrochloride of 2-[3-(4-aminobutyl)piperidino]-4-(benzimidazol-1-yl)-6-morpholino-1,3,5-triazine]"
24,4.3 µM,"c1ccc2c(c1)ncn2-c1nc(N2CCOCC2)cc(N2CCOCC2)n1 [compound 43, 2-(benzimidazol-1-yl)-4,6-dimorpholinopyrimidine]"
25,1.1 µM,"C[C@@H]1OCCN(c2cc(N3CCOCC3)nc(-n3cnc4ccccc43)n2)[C@@H]1C (relative stereo) [compound 21, 2-(benzimidazol-1-yl)-4-(cis-2,3-dimethylmorpholino)-6-morpholinopyrimidine]"
26,4.8 µM,"CC1CN(c2nc(N3CCOCC3)nc(-n3cnc4ccccc43)n2)CCO1 (stereo not shown) [compound 16, 2-(benzimidazol-1-yl)-4-(2-methylmorpholino)-6-morpholino-1,3,5-triazine]"
27,3.6 µM,"Brc1c(N2CCOCC2)nc(-n2cnc3ccccc32)nc1N1CCOCC1 [compound 47, 2-(benzimidazol-1-yl)-5-bromo-4,6-dimorpholinopyrimidine]"
28,3.9 µM,"CCC1CN(c2nc(N3CCOCC3)nc(-n3cnc4ccccc43)n2)CCO1 (stereo not shown) [compound 12, 2-(benzimidazol-1-yl)-4-(2-ethylmorpholino)-6-morpholino-1,3,5-triazine]"

row,Structure (SMILES),GI50
1,"CC(C)(C)OC(=O)NCC1CN(c2cc(N3CCOCC3)nc(-n3cnc4ccccc43)n2)CCO1 (stereo not shown) [compound 25, 2-(benzimidazol-1-yl)-4-[2-(tert-butoxycarbonylamino-methyl)morpholino]-6-morpholinopyrimidine]",4 µM
2,"CC(C)(C)OC(=O)NCC1CN(c2nc(N3CCOCC3)nc(-n3cnc4ccccc43)n2)CCO1 (stereo not shown) [compound 18, 2-(benzimidazol-1-yl)-4-[2-(tert-butoxycarbonylamino-methyl)morpholino]-6-morpholino-1,3,5-triazine]",6.3 µM
3,"CC(=O)OC1CCN(c2nc(N3CCOCC3)nc(-n3cnc4ccccc43)n2)CC1 [compound 38, 2-(4-acetoxypiperidino)-4-(benzimidazol-1-yl)-6-morpholino-1,3,5-triazine]",6.5 µM
